# Measured values published in ChEMBL document CHEMBL5512655, “Discovery of indolylacryloyl-derived oxacins as novel potential broad-spectrum antibacterial candidates” (Eur J Med Chem, 2024).
# Active and inactive are the calls of the source. The calls are words filed in the database; no cut-off is given here.
# Columns and labels:
# Staphylococcus aureus [1] = assay: Potency index, ratio of norfloxacin MIC to test compound MIC for antibacterial activity against Staphylococcus aureus ATCC 25923 assessed as inhibition of bacterial growth measured after 24 hrs incubation; type: functional
# Staphylococcus aureus [2] = assay: Reduction in metabolic activity in methicillin-resistant Staphylococcus aureus N315 by Alamar Blue assay; type: functional, organism-based
# Pseudomonas aeruginosa [3] = assay: Antibacterial activity against Pseudomonas aeruginosa assessed as inhibition of bacterial growth measured after 24 hrs incubation; type: functional
# Staphylococcus aureus [4] = assay: Antibacterial activity against methicillin-resistant Staphylococcus aureus N315 assessed as resistance development measured after 10 generations; type: functional, organism-based
# [5] = Cytotoxicity against HUVEC cells assessed as cell viability at 64 ug/ml measured after 24 hrs relative to control; type: toxicity, cell-based; details: human, at 64 µg/mL, read-out: Activity
# Pseudomonas aeruginosa [6] = assay: Potency index, ratio of norfloxacin MIC to test compound MIC for antibacterial activity against Pseudomonas aeruginosa ATCC 27853 assessed as inhibition of bacterial growth measured after 24 hrs incubation; type: functional
# Calf thymus DNA [7] = assay: Binding affinity to calf thymus DNA assessed as DNA intercalation with drug by […] assay; type: nucleic-acid assay; details: Bos taurus
# Escherichia coli [8] = assay: Induction of lipid peroxidation in Escherichia coli assessed as malondialdehyde (MDA) level production at 4 time of MIC; type: functional, organism-based
# [9] = Hemolytic activity in human red blood cells assessed as hemolysis rate at 512 ug/ml relative to control; type: toxicity, cell-based, Erythrocyte; details: red blood cells (erythrocytes), at 512 µg/mL, read-out: Activity
# Escherichia coli [10] = assay: Anti-biofilm effect in Escherichia coli assessed as biofilm destruction by measuring reduced biofilm content at MIC; type: functional
# Escherichia coli [11] = assay: Potency index, ratio of norfloxacin MIC to test compound MIC for antibacterial activity against Escherichia coli assessed as inhibition of bacterial growth measured after 24 hrs incubation; type: functional
# Escherichia coli [12] = assay: Antibacterial activity against Escherichia coli assessed as resistance development measured after 18 generations; type: functional, organism-based
# Escherichia coli [13] = assay: Antibacterial activity against Escherichia coli assessed as reduction in bacterial burden at 2 to 4 times of MIC measured within 5 hrs by time-dependent kinetics assay; type: functional, organism-based
# Escherichia coli [14] = assay: Induction of ROS production in Escherichia coli assessed as fluorescence intensity by DCFH-DA (dichlorofluorescin diacetate) probe based assay; type: functional, organism-based
# Staphylococcus aureus [15] = assay: Induction of lipid peroxidation in methicillin-resistant Staphylococcus aureus N315 assessed as malondialdehyde (MDA) level production at 4 time of MIC; type: functional, organism-based
# Escherichia coli [16] = assay: Anti-biofilm effect in Escherichia coli assessed as biofilm destruction rate at 6 times of MIC; type: functional
# Cell membrane [17] = assay: Induction of cytoplasmic membrane integrity loss in methicillin-resistant Staphylococcus aureus N315 assessed as increase in fluorescence intensity at 0.5 to 6 times of MIC by Propidium iodide method; type: cell membranes
# Escherichia coli [18] = assay: Potency index, ratio of norfloxacin MIC to test compound MIC for antibacterial activity against Escherichia coli ATCC 25922 assessed as inhibition of bacterial growth measured after 24 hrs incubation; type: functional
# Escherichia coli [19] = assay: Induction of lipid peroxidation in Escherichia coli assessed as malondialdehyde (MDA) level production; type: functional, organism-based
# Escherichia coli [20] = assay: Anti-biofilm effect in Escherichia coli assessed as inhibition of biofilm formation by measuring reduction in exo-polysaccharide content at 6 times of MIC relative to control; type: functional
# Escherichia coli [21] = assay: Antibacterial activity against Escherichia coli assessed as reduction in bacterial burden at 2 to 4 times of MIC measured upto 7 hrs by time-dependent kinetics assay; type: functional, organism-based
# [22] = Hemolytic activity in human red blood cells assessed as hemolysis rate at 64 ug/ml relative to control; type: toxicity, cell-based, Erythrocyte; details: red blood cells (erythrocytes), at 64 µg/mL, read-out: Activity
# Staphylococcus aureus [23] = assay: Antibacterial activity against methicillin-resistant Staphylococcus aureus N315 assessed as reduction in bacterial burden at 2 to 4 times of MIC measured within 5 hrs by time-dependent kinetics assay; type: functional, organism-based
# Calf thymus DNA [24] = assay: Binding affinity to calf thymus DNA by acridine orange staining based competitive binding assay; type: nucleic-acid assay; details: Bos taurus
# Staphylococcus aureus [25] = assay: Antibacterial activity against methicillin-resistant Staphylococcus aureus N315 assessed as reduction in bacterial burden at 2 to 4 times of MIC measured upto 7 hrs by time-dependent kinetics assay; type: functional, organism-based
# Staphylococcus aureus [26] = assay: Anti-biofilm effect in methicillin-resistant Staphylococcus aureus N315 assessed as biofilm destruction rate at 6 times of MIC; type: functional
# [27] = Cytotoxicity against human L02 cells assessed as cell viability at 16 ug/ml measured after 24 hrs relative to control; type: toxicity, cell-based; details: at 16 µg/mL, read-out: Activity
# Klebsiella pneumoniae [28] = assay: Antibacterial activity against Klebsiella pneumonia assessed as inhibition of bacterial growth measured after 24 hrs incubation; type: functional
# Staphylococcus aureus [29] = assay: Anti-biofilm effect in methicillin-resistant Staphylococcus aureus N315 assessed as biofilm destruction by measuring reduced biofilm content at MIC; type: functional
# Acinetobacter baumannii [30] = assay: Antibacterial activity against Acinetobacter baumannii assessed as inhibition of bacterial growth measured after 24 hrs incubation; type: functional
# Staphylococcus aureus [31] = assay: Antibacterial activity against Staphylococcus aureus assessed as inhibition of bacterial growth measured after 24 hrs incubation; type: functional
# Cell membrane [32] = assay: Induction of cell membrane damage in Escherichia coli assessed as increase in density of red fluorescence at 4 times of MIC by Calcein-AM/PI dual staining based fluorescence microscopy; type: cell membranes
# Cell membrane [33] = assay: Induction of cell membrane damage in methicillin-resistant Staphylococcus aureus N315 assessed as increase in density of red fluorescence at 4 times of MIC by Calcein-AM/PI dual staining based fluorescence microscopy; type: cell membranes
# Staphylococcus aureus [34] = assay: Antibacterial activity against methicillin-resistant Staphylococcus aureus N315 assessed as resistance development measured after 18 generations; type: functional, organism-based
# Staphylococcus aureus [35] = assay: Antibacterial activity against Staphylococcus aureus ATCC 29213 assessed as inhibition of bacterial growth measured after 24 hrs incubation; type: functional
# Staphylococcus aureus [36] = assay: Reduction in metabolic activity in methicillin-resistant Staphylococcus aureus N315 at 6 times of MIC by Alamar Blue assay relative to control; type: functional; design: scale not given: the % may be the effect or the level left
# Klebsiella pneumoniae [37] = assay: Potency index, ratio of norfloxacin MIC to test compound MIC for antibacterial activity against Klebsiella pneumonia assessed as inhibition of bacterial growth measured after 24 hrs incubation; type: functional
# Pseudomonas aeruginosa [38] = assay: Antibacterial activity against Pseudomonas aeruginosa ATCC 27853 assessed as inhibition of bacterial growth measured after 24 hrs incubation; type: functional
# Enterococcus faecalis = assay: Antibacterial activity against Enterococcus faecalis assessed as inhibition of bacterial growth measured after 24 hrs incubation; type: functional
# Staphylococcus aureus [39] = assay: Anti-biofilm effect in methicillin-resistant Staphylococcus aureus N315 assessed as inhibition of biofilm formation by measuring reduction in exo-polysaccharide content at 6 times of MIC relative to control; type: functional
# Escherichia coli [40] = assay: Reduction in metabolic activity in Escherichia coli at 6 times of MIC by Alamar Blue assay relative to control; type: functional; design: scale not given: the % may be the effect or the level left
# Acinetobacter baumannii [41] = assay: Potency index, ratio of norfloxacin MIC to test compound MIC for Antibacterial activity against Acinetobacter baumannii assessed as inhibition of bacterial growth measured after 24 hrs incubation; type: functional
# Staphylococcus aureus [42] = assay: Induction of ROS production in methicillin-resistant Staphylococcus aureus N315 assessed as fluorescence intensity at 2 times of MIC by DCFH-DA (dichlorofluorescin diacetate) probe based assay
structure (smiles),measurement,setting,value
CCOC(=O)Cn1cc(/C=C(\C#N)C(=O)N2CCN(c3cc4c(cc3F)c(=O)c(C(=O)O)cn4CC)CC2)c2ccccc21,Ratio,Staphylococcus aureus [1],1
same,Activity,Staphylococcus aureus [2],Dose-Dependent Effect
same,MIC,Pseudomonas aeruginosa [3],0.5 µg/mL
same,Activity,Staphylococcus aureus [4],inactive
same,"viability at 24 h, 64 ug/ml",[5],85%
same,Ratio,Pseudomonas aeruginosa [6],1
same,Activity,Calf thymus DNA [7],Active
same,Activity,Escherichia coli [8],Active
same,hemolysis at 512 ug/ml,[9],< 5%
same,inhibition (INH),Escherichia coli [10],82.7%
same,Ratio,Escherichia coli [11],1
same,Activity,Escherichia coli [12],Active
same,Activity,Escherichia coli [13],Active
same,Activity,Escherichia coli [14],Dose-Dependent Effect
same,Activity,Staphylococcus aureus [15],Active
same,inhibition (INH),Escherichia coli [16],>60%
same,Activity,Cell membrane [17],Active
same,Ratio,Escherichia coli [18],1
same,Activity,Escherichia coli [19],Dose-Dependent Effect
same,inhibition (INH),Escherichia coli [20],<50%
same,Activity,Escherichia coli [21],Active
same,hemolysis at 64 ug/ml,[22],< 5%
same,Activity,Staphylococcus aureus [23],Active
same,Activity,Calf thymus DNA [24],Active
same,Activity,Staphylococcus aureus [25],Active
same,inhibition (INH),Staphylococcus aureus [26],>60%
same,"viability at 24 h, 16 ug/ml",[27],80%
same,MIC,Klebsiella pneumoniae [28],0.5 µg/mL
same,inhibition (INH),Staphylococcus aureus [29],68.8%
same,MIC,Acinetobacter baumannii [30],0.25 µg/mL
same,MIC,Staphylococcus aureus [31],0.25 µg/mL
same,Activity,Cell membrane [32],Active
same,Activity,Cell membrane [33],Active
same,Activity,Staphylococcus aureus [34],Active
same,MIC,Staphylococcus aureus [35],0.25 µg/mL
same,Activity,Staphylococcus aureus [36],>50%
same,Ratio,Klebsiella pneumoniae [37],1
same,MIC,Pseudomonas aeruginosa [38],0.5 µg/mL
same,MIC,Enterococcus faecalis,0.25 µg/mL
same,inhibition (INH),Staphylococcus aureus [39],<50%
same,Activity,Escherichia coli [40],>50%
same,Ratio,Acinetobacter baumannii [41],1
same,Activity,Staphylococcus aureus [42],>50%
